Experimental data from patent publication US20110086916A1, “INTERVAL THERAPY FOR THE TREATMENT OF TINNITUS” (MERZ PHARMA GmbH & CO. KGaA, priority 2007, published 2011).

Tested on: subjects with subjective tinnitus of at least moderate severity
Assay: Double blind placebo controlled pilot trial of neramexane for treatment of tinnitus (TBF-12 score)
Assay type: in vivo, human
Details: for Change in the TBF-12 total score from baseline, Change LSMean: ANCOVA
Protocol: Visit 1 (screening): After signing the consent form, the subject underwent a physical examination and clinical laboratory testing. Patient eligibility for the study was evaluated via a check of inclusion/exclusion criteria. An initial Tinnitus Interview was conducted. The subject also completed a Tinnitus-Beeinträchtigungs-Fragebogen (TBF-12) (i.e., a 12-item German modified and validated version (Greimel K V et al., Tinnitus-Beeinträchtigungs-Fragebogen (TBF-12). Manual. Frankfurt am Main: Swets & Zeitlinger B.V.; 2000) of the 25-item Tinnitus Handicap Inventory or THI (Newman C W, et al. Development of the Tinnitus Handicap Inventory. Arch Otolaryngol Head Neck Surg 1996; 122(2): 143-148; Newman C W, et al. Psychometric adequacy of the Tinnitus Handicap Inventory (THI) for evaluating treatment outcome. J Am Acad Audiol 1998; 9(2): 153-160.)), a Hospital Anxiety and Depression Scale—Depression Subscale (HADS-D) Questionnaire and a Hyperacusis (Geräuschüberempfindlichkeit-Fragenbogen (GÜF)) Questionnaire (if applicable).
Visit 2 (baseline): The subject was asked about adverse events and changes in concomitant medication/disease, which events/changes were documented. The subject was evaluated for study eligibility based on a review of the inclusion/exclusion criteria. Trial procedures as well as allowed and forbidden concomitant medications were reviewed with the subject. An initial Tinnitus Interview was conducted. The subject also completed a TBF-12, HADS-D Questionnaire and GÜF Questionnaire (if applicable). The subject was enrolled in the study and study medication (placebo or neramexane) was dispensed as described below.
Visit 3 (Week 4): This visit occurred at the end of the 4-week up-titration sequence. The subject was asked about adverse events and changes in concomitant medication/disease, which events/changes were documented. A follow-up Tinnitus Interview was conducted. The subject also completed a TBF-12, HADS-D Questionnaire and GÜF Questionnaire (if applicable). Medication compliance was assessed, and medication for the next 4 weeks was dispensed as described below.
Visit 4 (Week 8): This visit occurred at the end of the first 4-week fixed-dose double-blind treatment period. The subject was asked about adverse events and changes in concomitant medication/disease, which changes are documented. Blood samples were collected in order to determine neramexane pre-dose concentration. A follow-up Tinnitus Interview was conducted. The subject also completed a TBF-12, HADS-D Questionnaire and GÜF Questionnaire (if applicable). Medication compliance was assessed and, medication for the next 4 weeks was dispensed as described below.
Visit 5 (Week 12): This visit occurred at the end of the second 4-week fixed-dose double-blind treatment period. The subject was asked about adverse events and changes in concomitant medication/disease, which changes are documented. A follow-up Tinnitus Interview was conducted. The subject also completed a TBF-12, HADS-D Questionnaire and GÜF Questionnaire (if applicable). Medication compliance was assessed and, medication for the next 4 weeks was dispensed as described below.
Visit 6 (Week 16, end of treatment): This visit occurred at the end of the 12-week fixed-dose double-blind treatment period. The subject was asked about adverse events and changes in concomitant medication/disease, which changes are documented. A clinical laboratory evaluation was performed. A follow-up Tinnitus Interview was conducted, and the subject completed a TBF-12, HADS-D Questionnaire and GÜF Questionnaire (if applicable). Pure-tone audiometry (air conduction) was also conducted.
Visit 7 (Week 20): This visit occurred at the end of the 4-week follow-up period after the last study medication dose. Review of concomitant medications as well as the occurrence of adverse events since the last visit is conducted with subject. […]

[1] = 25 mg/d, Week 4, ITT-LOCF, n=106
[2] = 25 mg/d, Week 8, ITT-LOCF, n=106
[3] = 25 mg/d, Week 12, ITT-LOCF, n=106
[4] = 25 mg/d, Week 16 (end of treatment), ITT-LOCF, n=106
[5] = 25 mg/d, Week 20 (Follow-up, 4 weeks without treatment), ITT-LOCF, n=100
[6] = 50 mg/d, Week 4, ITT-LOCF, n=106
[7] = 50 mg/d, Week 8, ITT-LOCF, n=106
[8] = 50 mg/d, Week 12, ITT-LOCF, n=106
[9] = 50 mg/d, Week 16 (end of treatment), ITT-LOCF, n=106
[10] = 50 mg/d, Week 20 (Follow-up, 4 weeks without treatment), ITT-LOCF, n=95
[11] = 75 mg/d, Week 4, ITT-LOCF, n=99
[12] = 75 mg/d, Week 8, ITT-LOCF, n=99
[13] = 75 mg/d, Week 12, ITT-LOCF, n=99
[14] = 75 mg/d, Week 16 (end of treatment), ITT-LOCF, n=99
[15] = 75 mg/d, Week 20 (Follow-up, 4 weeks without treatment), ITT-LOCF, n=89

CC1(C)CC(C)(C)CC(C)(N)C1 [Neramexane, 1-amino-1,3,3,5,5-pentamethylcyclohexane]
Change in the TBF-12 total score from baseline, Change LSMean (25 mg/d, Week 4, ITT-LOCF): −0.8
Change in the TBF-12 total score from baseline, Change Mean ± SD [1]: −1.0 ± 2.6
TBF-12 total score, Actual Mean ± SD [1]: 13.4 ± 4.5
Change in TBF-12 total score, Neramexane - Placebo LSMean Diff. ± SE (25 mg/d, Week 4, ITT-LOCF, 95% CI [−0.8, 0.7], p-value 0.875): −0.1 ± 0.4
Change in the TBF-12 total score from baseline, Change LSMean (25 mg/d, Week 8, ITT-LOCF): −1.5
Change in the TBF-12 total score from baseline, Change Mean ± SD [2]: −1.7 ± 2.9
TBF-12 total score, Actual Mean ± SD [2]: 12.7 ± 4.9
Change in TBF-12 total score, Neramexane - Placebo LSMean Diff. ± SE (25 mg/d, Week 8, ITT-LOCF, 95% CI [−0.5, 1.2], p-value 0.429): 0.3 ± 0.4
Change in the TBF-12 total score from baseline, Change LSMean (25 mg/d, Week 12, ITT-LOCF): −1.4
Change in the TBF-12 total score from baseline, Change Mean ± SD [3]: −1.6 ± 3.4
TBF-12 total score, Actual Mean ± SD [3]: 12.8 ± 5.0
Change in TBF-12 total score, Neramexane - Placebo LSMean Diff. ± SE (25 mg/d, Week 12, ITT-LOCF, 95% CI [−0.3, 1.6], p-value 0.182): 0.6 ± 0.5
Change in the TBF-12 total score from baseline, Change LSMean (25 mg/d, Week 16 (end of treatment), ITT-LOCF): −1.8
Change in the TBF-12 total score from baseline, Change Mean ± SD [4]: −2.0 ± 3.4
TBF-12 total score, Actual Mean ± SD [4]: 12.4 ± 5.3
Change in TBF-12 total score, Neramexane - Placebo LSMean Diff. ± SE (25 mg/d, Week 16 (end of treatment), ITT-LOCF, 95% CI [−0.5, 1.5], p-value 0.359): 0.5 ± 0.5
Change in TBF-12 total score, Neramexane - Placebo LSMean Diff. ± SE (25 mg/d, Week 20 (Follow-up), ITT-LOCF, 95% CI [−0.6, 1.6], p-value 0.336): 0.5 ± 0.6
Change in the TBF-12 total score from baseline, Change LSMean (25 mg/d, Week 20 (Follow-up, 4 weeks without treatment), ITT-LOCF): −2.0
Change in the TBF-12 total score from baseline, Change Mean ± SD [5]: −2.1 ± 3.4
TBF-12 total score, Actual Mean ± SD [5]: 12.3 ± 5.5
Change in the TBF-12 total score from baseline, Change LSMean (50 mg/d, Week 4, ITT-LOCF): −1.4
Change in the TBF-12 total score from baseline, Change Mean ± SD [6]: −1.4 ± 3.2
TBF-12 total score, Actual Mean ± SD [6]: 13.0 ± 4.7
Change in TBF-12 total score, Neramexane - Placebo LSMean Diff. ± SE (50 mg/d, Week 4, ITT-LOCF, 95% CI [−1.3, 0.1], p-value 0.110): −0.6 ± 0.4
Change in the TBF-12 total score from baseline, Change LSMean (50 mg/d, Week 8, ITT-LOCF): −2.1
Change in the TBF-12 total score from baseline, Change Mean ± SD [7]: −2.2 ± 3.3
TBF-12 total score, Actual Mean ± SD [7]: 12.3 ± 4.8
Change in TBF-12 total score, Neramexane - Placebo LSMean Diff. ± SE (50 mg/d, Week 8, ITT-LOCF, 95% CI [−1.1, 0.5], p-value 0.488): −0.3 ± 0.4
Change in the TBF-12 total score from baseline, Change LSMean (50 mg/d, Week 12, ITT-LOCF): −2.5
Change in the TBF-12 total score from baseline, Change Mean ± SD [8]: −2.6 ± 3.8
TBF-12 total score, Actual Mean ± SD [8]: 11.8 ± 4.9
Change in TBF-12 total score, Neramexane - Placebo LSMean Diff. ± SE (50 mg/d, Week 12, ITT-LOCF, 95% CI [−1.4, 0.5], p-value 0.357): −0.4 ± 0.5
Change in the TBF-12 total score from baseline, Change LSMean (50 mg/d, Week 16 (end of treatment), ITT-LOCF): −3.1
Change in the TBF-12 total score from baseline, Change Mean ± SD [9]: −3.2 ± 4.1
TBF-12 total score, Actual Mean ± SD [9]: 11.2 ± 5.1
Change in TBF-12 total score, Neramexane - Placebo LSMean Diff. ± SE (50 mg/d, Week 16 (end of treatment), ITT-LOCF, 95% CI [−1.8, 0.2], p-value 0.098): −0.8 ± 0.5
Change in TBF-12 total score, Neramexane - Placebo LSMean Diff. ± SE (50 mg/d, Week 20 (Follow-up), ITT-LOCF, 95% CI [−2.4, −0.2], p-value 0.021): −1.3 ± 0.6
Change in the TBF-12 total score from baseline, Change LSMean (50 mg/d, Week 20 (Follow-up, 4 weeks without treatment), ITT-LOCF): −3.8
Change in the TBF-12 total score from baseline, Change Mean ± SD [10]: −3.9 ± 4.4
TBF-12 total score, Actual Mean ± SD [10]: 10.4 ± 5.3
Change in the TBF-12 total score from baseline, Change LSMean (75 mg/d, Week 4, ITT-LOCF): −1.6
Change in the TBF-12 total score from baseline, Change Mean ± SD [11]: −1.7 ± 2.7
TBF-12 total score, Actual Mean ± SD [11]: 12.2 ± 4.3
Change in TBF-12 total score, Neramexane - Placebo LSMean Diff. ± SE (75 mg/d, Week 4, ITT-LOCF, 95% CI [−1.6, −0.1], p-value 0.026): −0.9 ± 0.4
Change in the TBF-12 total score from baseline, Change LSMean (75 mg/d, Week 8, ITT-LOCF): −1.9
Change in the TBF-12 total score from baseline, Change Mean ± SD [12]: −2.0 ± 3.3
TBF-12 total score, Actual Mean ± SD [12]: 11.9 ± 4.5
Change in TBF-12 total score, Neramexane - Placebo LSMean Diff. ± SE (75 mg/d, Week 8, ITT-LOCF, 95% CI [−1.0, 0.7], p-value 0.813): −0.1 ± 0.4
Change in the TBF-12 total score from baseline, Change LSMean (75 mg/d, Week 12, ITT-LOCF): −2.4
Change in the TBF-12 total score from baseline, Change Mean ± SD [13]: −2.5 ± 3.5
TBF-12 total score, Actual Mean ± SD [13]: 11.4 ± 4.9
Change in TBF-12 total score, Neramexane - Placebo LSMean Diff. ± SE (75 mg/d, Week 12, ITT-LOCF, 95% CI [−1.3, 0.6], p-value 0.457): −0.4 ± 0.5
Change in the TBF-12 total score from baseline, Change LSMean (75 mg/d, Week 16 (end of treatment), ITT-LOCF): −2.8
Change in the TBF-12 total score from baseline, Change Mean ± SD [14]: −2.9 ± 3.9
TBF-12 total score, Actual Mean ± SD [14]: 11.0 ± 5.1
Change in TBF-12 total score, Neramexane - Placebo LSMean Diff. ± SE (75 mg/d, Week 16 (end of treatment), ITT-LOCF, 95% CI [−1.6, 0.5], p-value 0.289): −0.5 ± 0.5
Change in TBF-12 total score, Neramexane - Placebo LSMean Diff. ± SE (75 mg/d, Week 20 (Follow-up), ITT-LOCF, 95% CI [−1.8, 0.5], p-value 0.244): −0.7 ± 0.6
Change in the TBF-12 total score from baseline, Change LSMean (75 mg/d, Week 20 (Follow-up, 4 weeks without treatment), ITT-LOCF): −3.2
Change in the TBF-12 total score from baseline, Change Mean ± SD [15]: −3.3 ± 3.6
TBF-12 total score, Actual Mean ± SD [15]: 10.5 ± 4.9
Capability for improvement of tinnitus after withdrawal (conclusion of pilot trial) (after drug withdrawal): sustained improvement of tinnitus even after the drug is withdrawn
Further improvement of tinnitus during 4-week wash-out period without any medication (subjects who had received low-dose (25 mg)): not reported

CC1(C)CC(C)(C)CC(C)(N)C1.CS(=O)(=O)O [neramexane mesylate]
Improvement of tinnitus as measured by the TBF-12 (after 16-week double-blind treatment (Visit 6), final daily doses of 50 or 75 mg, distinct from placebo or low-dose (25 mg) groups): clear improvement of their tinnitus
Differences in TBF-12 improvement between the 50 mg and the placebo group (end of the 4-week wash-out (Week 20, Visit 7), 50 mg): reached statistical significance
Improvement of tinnitus during 4-week wash-out period without any medication (subjects previously treated with either 50 or 75 mg): further relevant improvement of their tinnitus
